Test results published in US6361788B1, “Synergistic biocide composition” (Thor Chemie GmbH, priority 1997, dated 2002).
Entries after “also recorded” stand apart in the source; their conditions may differ.

Key:
Format in all cases: cell-based
[1] = test system: standard bacterial inoculum; assay: Preservation of coating composition B, repeated bacterial inoculation, streak evaluation
Description: (§1) The biocides shown in Table XI below were added respectively to 50 g of coating composition A. The stated amounts of biocide refer to the amount of coating composition A. In the MIT/BIT mixtures, the two biocides were present in a weight ratio of 1:1.
(§2) Apart from a blank test without addition of biocide, 1 mL of a standard bacterial inoculum that contained the following bacterial strains was added to each sample of coating composition A:
(§3) The cell density of the inoculum was 10^10 to 3·10^10 cells/mL, and the cell density of the samples was 2·10^8 to 6·10^8 cells/g. The samples were held at 30° C. for 7 days. Then a streak of each sample was produced on a nutrient agar plate, held at 30° C. for 48 h, and then evaluated for bacterial growth. The following evaluation scale was used:
(§4) When the bacterial growth was evaluated as below 6, a second bacterial inoculum of the above-mentioned type was added to the corresponding original 50 g sample and it was again held at 30° C. for 7 days. Then a streak was again produced on a nutrient agar plate, which was again evaluated for its bacterial growth after a holding time of 48 h at 30° C.
(§5) When the bacterial growth of the streak was evaluated as 6 for a sample, the testing of this sample was terminated. As long as a sample had not reached this number, a bacterial inoculum was again added in the above-mentioned manner and the sample was held and tested by means of a streak. This procedure was repeated as necessary, with a maximum of 4 bacterial inocula being added per sample.
Example 9 was repeated, but using coating composition B instead of coating composition A.
Coating composition B is a particularly low-emission plaster based on a polymer dispersion commercially available under the designation “Granol KR 3.0 LF” (company Steinwerke Kupferdreh GmbH).

Pseudomonas aeruginosa = assay: MIC and synergy of MIT and BIT in Müller-Hinton broth, 48 h; settings: for growth of the microorganism: MIT ppm = row head c0; on growth of the microorganism: key: growth of the microorganism took place (symbol '+'); or not (symbol '−')
Description: (§6) The synergy index is calculated according to the method of F. C. Kull et al., Applied Microbiology, Vol. 9 (1961), p. 538. Here the synergy index is calculated using the following formula:
(§7) Synergy index SI=Qa/QA+Qb/QB.
The synergy of the two active substances MIT and BIT against the microorganism Pseudomonas aeruginosa is shown as in Example 1.
The test batches again contained a Müller-Hinton broth as a nutrient medium. The cell density was 10^6 cells/mL. The incubation time was 48 h at 25° C. Each sample was incubated on an incubation shaker at 120 rpm.

Penicillium funiculosum = assay: MIC and synergy of MIT and BIT in Sabouraud maltose broth, 96 h; settings: for growth of the microorganism: MIT ppm = row head c0; on growth of the microorganism: key: growth of the microorganism took place (symbol '+'); or not (symbol '−')
Description: as §6, §7
The synergy of the two active substances MIT and BIT against the microorganism Penicillium funiculosum is shown as in Example 1.
(§8) The test batches contained a Sabouraud maltose broth as a nutrient medium. The spore concentration was 10^6 per mL. The incubation time was 96 h at 25° C. Each sample was incubated on an incubation shaker at 120 rpm.

Pseudomonas stutzeri = assay: MIC and synergy of MIT and BIT in Müller-Hinton broth, 72 h; settings: for growth of the microorganism: MIT ppm = row head c0; on growth of the microorganism: key: growth of the microorganism took place (symbol '+'); or not (symbol '−')
Description: as §6, §7
The synergy of MIT and BIT against the microorganism Pseudomonas stutzeri is shown as in Example 1.
The test batches again contained a Müller-Hinton broth as a nutrient medium. The cell density was 10^6 cells/mL. The incubation time was 72 h at 25° C. Each sample was incubated on an incubation shaker at 120 rpm.

[2] = test system: standard bacterial inoculum; assay: Preservation of coating composition A, repeated bacterial inoculation, streak evaluation
From the text: Biocide compositions according to the invention were incorporated into a coating composition A that is used for coating building facades. This coating composition is a plaster based on an aqueous polymer dispersion commercially available under the designation “Granol KR 3.0” (company Steinwerke Kupferdreh GmbH). The addition of the biocide composition of the invention served to preserve the coating composition before its use, i.e., while it was stored in its packing drums.
as §1, §2, §3, §4, §5

Aspergillus niger = assay: MIC and synergy of MIT and BIT in Sabouraud maltose broth, 96 h; settings: for growth of the microorganism: MIT ppm = row head c0; on growth of the microorganism: key: growth of the microorganism took place (symbol '+'); or not (symbol '−')
Description: as §6, §7
The synergy of the two active substances MIT and BIT against the microorganism Aspergillus niger is shown as in Example 1.
as §8

[3] = share of the BIT/MIT mixture at MIC, 96 h

SMILES: O=c1[nH]sc2ccccc12 [BIT, 1,2-benzisothiazolin-3-one]
- bacterial attack ([1]; all tested concentrations 0.005-0.03% by wt): complete bacterial attack could be observed after the third inoculation at the latest
- Bacterial growth (7 days + 48 h after 4th inoculation) ([1]; biocide 0.005% by wt): (Growth already after 1st inoculation)
- Bacterial growth (7 days + 48 h after 4th inoculation) ([1]; biocide 0.01% by wt): (Growth already after #^st inoculation)
- Bacterial growth (7 days + 48 h after 4th inoculation) ([1]; biocide 0.015% by wt): (Growth already after 2nd inoculation)
- Bacterial growth (7 days + 48 h after 4th inoculation) ([1]; biocide 0.02% by wt): (Growth already after 2nd inoculation)
- Bacterial growth (7 days + 48 h after 4th inoculation) ([1]; biocide 0.03% by wt): (Growth already after 3rd inoculation)
- MIC at Total concentration BIT + MIT Qa + Qb (Pseudomonas aeruginosa; 48 h): 150 ppm
- Qa/QA (Pseudomonas aeruginosa; 48 h): 1.00
- Synergy index Qa/QA + Qb/QB (Pseudomonas aeruginosa; 48 h): 1.00
- growth of the microorganism (Pseudomonas aeruginosa; BIT 5 ppm, 48 h): +
- growth of the microorganism (Pseudomonas aeruginosa; BIT 10 ppm, 48 h): +
- growth of the microorganism (Pseudomonas aeruginosa; BIT 25 ppm, 48 h): +
- growth of the microorganism (Pseudomonas aeruginosa; BIT 50 ppm, 48 h): +
- growth of the microorganism (Pseudomonas aeruginosa; BIT 75 ppm, 48 h): +
- growth of the microorganism (Pseudomonas aeruginosa; BIT 100 ppm, 48 h): +
- growth of the microorganism (Pseudomonas aeruginosa; BIT 125 ppm, 48 h): +
- growth of the microorganism (Pseudomonas aeruginosa; BIT 150 ppm, 48 h): −
- growth of the microorganism (Pseudomonas aeruginosa; BIT 175 ppm, 48 h): −
- growth of the microorganism (Pseudomonas aeruginosa; BIT 200 ppm, 48 h): −
- MIC at BIT concentration Qa (Pseudomonas aeruginosa; BIT share of the BIT/MIT mixture at MIC, 48 h): 150 ppm
- MIC value (Pseudomonas aeruginosa; used alone, 48 h at 25° C.): 150 ppm
- MIC at Total concentration BIT + MIT Qa + Qb (Penicillium funiculosum; 96 h): 200 ppm
- Qa/QA (Penicillium funiculosum; 96 h): 1.00
- Synergy index Qa/QA + Qb/QB (Penicillium funiculosum; 96 h): 1.00
- growth of the microorganism (Penicillium funiculosum; BIT 10 ppm, 96 h): +
- growth of the microorganism (Penicillium funiculosum; BIT 15 ppm, 96 h): +
- growth of the microorganism (Penicillium funiculosum; BIT 20 ppm, 96 h): +
- growth of the microorganism (Penicillium funiculosum; BIT 30 ppm, 96 h): +
- growth of the microorganism (Penicillium funiculosum; BIT 40 ppm, 96 h): −
- growth of the microorganism (Penicillium funiculosum; BIT 50 ppm, 96 h): −
- growth of the microorganism (Penicillium funiculosum; BIT 75 ppm, 96 h): −
- MIC at BIT concentration Qa (Penicillium funiculosum; [3]): 200 ppm
- MIC value (Penicillium funiculosum; used alone, 96 h at 25° C.): 40 ppm
- MIC at Total concentration BIT + MIT Qa + Qb (Pseudomonas stutzeri; 72 h): 20 ppm
- Qa/QA (Pseudomonas stutzeri; 72 h): 1.00
- Synergy index Qa/QA + Qb/QB (Pseudomonas stutzeri; 72 h): 1.00
- growth of the microorganism (Pseudomonas stutzeri; BIT 0.5 ppm, 72 h): +
- growth of the microorganism (Pseudomonas stutzeri; BIT 1 ppm, 72 h): +
- growth of the microorganism (Pseudomonas stutzeri; BIT 2.5 ppm, 72 h): +
- growth of the microorganism (Pseudomonas stutzeri; BIT 5 ppm, 72 h): +
- growth of the microorganism (Pseudomonas stutzeri; BIT 7.5 ppm, 72 h): +
- growth of the microorganism (Pseudomonas stutzeri; BIT 10 ppm, 72 h): +
- growth of the microorganism (Pseudomonas stutzeri; BIT 15 ppm, 72 h): +
- growth of the microorganism (Pseudomonas stutzeri; BIT 20 ppm, 72 h): −
- growth of the microorganism (Pseudomonas stutzeri; BIT 25 ppm, 72 h): −
- growth of the microorganism (Pseudomonas stutzeri; BIT 30 ppm, 72 h): −
- MIC at BIT concentration Qa (Pseudomonas stutzeri; BIT share of the BIT/MIT mixture at MIC, 72 h): 20 ppm
- MIC value (Pseudomonas stutzeri; used alone, 72 h at 25° C.): 20 ppm
- Bacterial growth (7 days + 48 h after 4th inoculation) ([2]; biocide 0.005% by wt): full bacterial growth was reached already after the first inoculation; also recorded: (Growth already after 1st inoculation)
- Bacterial growth (7 days + 48 h after 4th inoculation) ([2]; biocide 0.01% by wt): (Growth already after 1st inoculation)
- Bacterial growth (7 days + 48 h after 4th inoculation) ([2]; biocide 0.015% by wt): after the second inoculation; also recorded: (Growth already after 2nd inoculation)
- Bacterial growth (7 days + 48 h after 4th inoculation) ([2]; biocide 0.02% by wt): (Growth already after 2nd inoculation)
- Bacterial growth (7 days + 48 h after 4th inoculation) ([2]; biocide 0.03% by wt): after the third inoculation; also recorded: (Growth already after 3rd inoculation)
- MIC at Total concentration BIT + MIT Qa + Qb (Aspergillus niger; 96 h): 750 ppm
- Qa/QA (Aspergillus niger; 96 h): 1.00
- Synergy index Qa/QA + Qb/QB (Aspergillus niger; 96 h): 1.00
- growth of the microorganism (Aspergillus niger; BIT 5 ppm, 96 h): +
- growth of the microorganism (Aspergillus niger; BIT 10 ppm, 96 h): +
- growth of the microorganism (Aspergillus niger; BIT 25 ppm, 96 h): +
- growth of the microorganism (Aspergillus niger; BIT 50 ppm, 96 h): +
- growth of the microorganism (Aspergillus niger; BIT 75 ppm, 96 h): +
- growth of the microorganism (Aspergillus niger; BIT 100 ppm, 96 h): −
- growth of the microorganism (Aspergillus niger; BIT 150 ppm, 96 h): −
- MIC at BIT concentration Qa (Aspergillus niger; [3]): 750 ppm
- MIC value (Aspergillus niger; used alone, 96 h at 25° C.): 100 ppm
